The values that follow come from US6714815B2, “Method for the iontophoretic non-invasive determination of the in vivo concentration level of an inorganic or organic substance” (The Regents of the University of California, priority 1988, dated 2004).

Where a name gives a salt, the structure may show the parent alone.

The nature of data set [1]: In-vitro iontophoretic delivery of P.S.O.S. in the diffusion cell. It counts as in vitro ADME. Here is the method:
(b) P.S.O.S. (Potassium Sucrose Octa Sulfate) P.S.O.S., 0.6 ml of 1.5 mg/ml solution in a boric buffer is placed in chamber 16A and boric acid buffer alone is placed in chamber 16C of FIGS. 1, 2 or 3. Using a direct current of 0.5 mA (0.65 mA/cm^2) transport of P.S.O.S is observed up to 5 μg/hr.

For data set [2] the following is noted: forearm of a person; compared with in vitro case.
How the values of data set [3] were obtained:
Drugs—Clonidine HCl (Sigma Chemical Co., St. Louis, Mo.); Clonidine-HCl (phenyl-4-^3H) of specific activity 90 mCi/mg (Amersham, Arlington Heights, Ill.). […] The non-labelled drugs were dissolved in deionized water to form solutions of 1 mg/ml, with enough labelled drug to achieve an activity of approximately […].
Skin (13)—Full-thickness skin, freshly excised from 11-15 week old female hairless mice (strain Skh:HR-1, Simonsen Laboratory, Gilroy, Calif.).
Testing of the Modeling Cell—The diffusion cell 10 was tested in three ways:
(1) Leakage tests (without current) using dye and silicone rubber than skin; (2) leakage tests using dye and skin (without current); and (3) iontophoretic tests using the drug solutions and skin (with and without current). Procedures (1) and (2) were evaluated by visually inspecting the cell. For procedure (3), 0.6 ml of labelled drug solution was placed in chamber 16A, 0.6 ml of buffered saline was pipetted into chamber 16C, and a constant current of 0.63 mA/cm^2 (with the voltage limited at 9 V) was imposed between the electrodes in the two chambers. The activity of the solutions in chambers 16A and 16C was determined before and after iontophoresis. The activity of the skin 13 and of the samples taken from the receptor chamber was determined post-experimentally. Each experiment lasts approximately 24 hours, ±2 hours, with samples collected hourly. Receptor fluid 17 was magnetically stirred (27), and the collection flow rate was 10 ml/hr. Each procedure was, repeated three times.

How the values of data set [4] were obtained: FIG. 5—The iontophoretic sampling was extended to another neutral bioactive molecule: ethanol.
An identical protocol to that employed for glucose experiments is followed. The only difference being in the concentration of ethanol in the dermal side. A concentration of 17 mM was used as this corresponds to a 0.08% solution, the maximum blood alcohol level legally allowed.
Radioactivity was again used to measure the extracted ethanol. The dermal side using radioactive ethanol, [1-14C]
The source holds these as a separate data set.

Where [5] appears, read: female, Skh:HR-1 hairless, mouse, 1 mg/ml.

For `O=S(=O)([O-])OC[C@H]1O[C@@](COS(=O)(=O)[O-])(O[C@H]2O[C@H](COS(=O)(=O)[O-])[C@@H](OS(=O)(=O)[O-])[C@H](OS(=O)(=O)[O-])[C@H]2OS(=O)(=O)[O-])[C@@H](OS(=O)(=O)[O-])[C@@H]1OS(=O)(=O)[O-].[K+].[K+].[K+].[K+].[K+].[K+].[K+].[K+]` [P.S.O.S, Potassium Sucrose Octa Sulfate], the “transport of P.S.O.S” value in data set [1] (direct current of 0.5 mA (0.65 mA/cm^2), 0.6 ml of 1.5 mg/ml in boric buffer in chamber 16A) is given as “up to 5 μg/hr”. Also, the P.S.O.S transferred entry in data set [1] (same experimental configuration, printed 'with a current') is listed as “only a few nanograms”.
For the compound `Clc1cccc(Cl)c1N=C1NCCN1` [clonidine-HCl, Clonidine HCl], in data set [2], the “amount of clonidine sampled” value was “comparable to that observed in the in vitro case”. In addition, in data set [3], the “drug in the buffered saline of chamber 16C” value is on record as “no drug was found”. Besides, in data set [3] (setting [5]), the “mean rate of diffusion into the receptor phase (passive transport rate)” value is given as 0.05 μg/cm^2/hr and the “rate of penetration through the skin” value was 15.0 μg/cm^2/hr. Also, the “labelled drug detected in the buffered saline of chamber 16C” value in data set [3] (female, Skh:HR-1 hairless, mouse, 20 h, 1 mg/ml) was found to be 5 µg.
On to `CCO` [ethanol], for which the “amount of ethanol extracted iontophoretically” value in data set [4] (ethanol 17 mM on the dermal side, compared with glucose) was “far greater than that obtained with glucose”. In data set [4] (ethanol 17 mM on the dermal side, no current), the passive flux result is on record as “large passive flux”. In data set [4] (preliminary experiments), the “cathodal versus anodal concentration” value is recorded as “cathodal concentration is greater than anodal” and the “metabolism during iontophoretic sampling” value is “does not seem to be metabolized”.
